Source: US9999616B2 (ZENITH EPIGENETICS LTD., priority 2013, dated 2018)

Legend:
[1] = system: c-myc in Human AML MV4-11 cells; assay: Inhibition of cMYC expression (mRNA, real-time PCR) in MV4-11 cells; assay type: cell-based; details: 3 h treatment, cMYC mRNA by real-time PCR
In short: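 MV4-11 cells in IMDM with 10% FBS were treated with increasing compound concentrations (DMSO 0.1%) for 3 h at 37 °C, in triplicate. Isolated mRNA was quantified by one-step TaqMan RT-qPCR, cMYC Ct normalized to cyclophilin, and fold expression given relative to DMSO control.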

[2] = system: hIL-6 mRNA; assay: Inhibition of hIL-6 mRNA transcription in LPS-stimulated U937 macrophages; assay type: cell-based, Human; details: Homo sapiens, U-937, PMA-differentiated U937 cells, 1 h pretreatment, LPS 3 h, read-out: IL-6 activity
In short: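 PMA-differentiated U937 macrophages (60 ng/mL PMA, 3 days) pretreated 1 h with compound in 0.1% DMSO, then stimulated with 1 ug/mL E. coli LPS for 3 h at 37° C. IL-6 mRNA quantified by one-step TaqMan qRT-PCR, normalized to cyclophilin; fold expression relative to control, triplicate wells.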

[3] = system: MV4-11 cells; assay: In vivo efficacy in athymic nude mouse acute myeloid leukemia xenograft model using MV4-11 cells; details: athymic nude mouse AML xenograft (MV4-11), oral dosing
Procedure: MV4-11 cells (ATCC) were grown under standard cell culture conditions and (NCr) nu/nu fisol strain of female mice age 6-7 weeks were injected with 5×10^6 cells/animal in 100 μL PBS+100 μL Matrigel in the lower left abdominal flank. By approximately day 18-21 after MV4-11 cells injection, mice were randomized based on tumor volume (L×W×H)/2) of average ˜100-300 mm^3. Mice were dosed orally with compound at 5 to 120 mg/kg b.i.d and/or q.d. on a continuous dosing schedule and at 2.5 to 85 mg/kg q.d. on a 5 day on 2 day off, 100 mg/kg q.d. on a 4 day on and 3 day off, 135 mg/kg q.d. on a 3 day on and 4 day off, 180 mg/kg on a 2 day on and 5 day off and 240 mg/kg on a 1 day on and 6 days off dosing schedules in EA006 formulation at 10 mL/kg body weight dose volume. Tumor measurements were taken with electronic micro calipers and body weights measured on alternate days beginning from dosing period. The average tumor volumes, percent Tumor Growth Inhibition (TGI) and % change in body weights were compared relative to Vehicle control animals. The means, statistical analysis and the comparison between groups were calculated using Student's t-test in Excel.

[4] = system: Bcl2 and c-myc gene expression; assay: Evaluation of target engagement: Bcl2 and c-myc gene expression in MV4-11 and MM1.s xenograft tumors; assay type: in vivo, mouse; details: oral dose, tumors harvested 3, 6, 12, 24 hrs post dose for Bcl2 and c-myc gene expression as PD biomarkers
Procedure: MV4-11 and MM1.s cells (ATCC) are grown under standard cell culture conditions and (NCr) nu/nu fisol strain of female mice age 6-7 weeks are injected with 5×10^6 cells/animal in 100 μL PBS+100 μL Matrigel in the lower left abdominal flank. By approximately day 28 after MV4-11 and MM1.s cells injection, mice are randomized based on tumor volume (L×W×H)/2) of average ˜500 mm^3. Mice are dosed orally with compound in EA006 formulation at 10 mL/kg body weight dose volume and tumors harvested 3, 6, 12, 24 hrs post dose for Bcl2 and c-myc gene expression analysis as PD biomarkers.

[5] = In vivo efficacy in rat collagen-induced arthritis; details: female Lewis rats, dosed Day 11 to Day 17
Procedure: Rat collagen-induced arthritis is an experimental model of polyarthritis that has been widely used for preclinical testing of numerous anti-arthritic agents. Following administration of collagen, this model establishes a measurable polyarticular inflammation, marked cartilage destruction in association with pannus formation and mild to moderate bone resorption and periosteal bone proliferation. In this model, collagen was administered to female Lewis strain of rats on Day 1 and 7 of study and dosed with compounds from Day 11 to Day 17. Test compounds were administered at 25 mg/kg to 120 mg/kg b.i.d and 7.5 mg/kg to 30 mg/kg q.d dose to assess the potential to inhibit the inflammation (including paw swelling), cartilage destruction and bone resorption in arthritic rats, using a model in which the treatment is administered after the disease has been established.

[6] = In vivo efficacy in experimental autoimmune encephalomyelitis (EAE) model of MS; design: species or system mouse; details: female C57Bl/6 mice, 50 to 125 mg/kg b.i.d.
Source text: Experimental autoimmune encephalomyelitis (EAE) is a T-cell-mediated autoimmune disease of the CNS which shares many clinical and histopathological features with human multiple sclerosis (MS). EAE is the most commonly used animal model of MS. […] Cytokines IL-23, IL-6 and IL-17, which are either critical for Th1 and Th17 differentiation or produced by these T cells, play a critical and non-redundant role in EAE development. Therefore, drugs targeting production of these cytokines are likely to have therapeutic potential in treatment of MS.
Compounds of Formula I were administered at 50 to 125 mg/kg b.i.d. from time of immunization to EAE mice to assess anti-inflammatory activity. In this model, EAE is induced by MOG35-55/CFA immunization and pertussis toxin injection in female C57Bl/6 mice.

[7] = system: TH1, Th2 and Th17 cytokines; assay: Ex vivo effects on T cell function from splenocyte and lymphocyte cultures stimulated with external MOG; assay type: in vivo, mouse; details: MOG stimulation 72 hours, mice treated 11 days b.i.d
Procedure: Mice were immunized with MOG/CFA and simultaneously treated with the compound for 11 days on a b.i.d regimen. Inguinal Lymph node and spleen were harvested, cultures were set up for lymphocytes and splenocytes and stimulated with external antigen (MOG) for 72 hours. Supernatants from these cultures were analyzed for TH1, Th2 and Th17 cytokines using a Cytometric Bead Array assay.

Row | IC50 [1] [nM] | IC50 [2] [nM] | Structure (SMILES) | In vivo activity [3] | In vivo activity [4] | In vivo activity [5] | In vivo activity [6] | In vivo activity [7]
1 | 300 to 3000 | ≤ 300 | Cc1noc(C)c1-c1cc(-c2c(C)noc2C)c2nc[nH]c2c1 [Example Compound 1, 4,4′-(1H-benzo[d]imidazole-4,6-diyl)bis(3,5-dimethylisoxazole)] | Active | Active | Active | Active | Active
2 | 300 to 3000 | 300 to 3000 | Cc1nc2c(-c3c(C)noc3C)cc(-c3c(C)noc3C)cc2[nH]1 [Example Compound 6, 4,4′-(2-methyl-1H-benzo[d]imidazole-4,6-diyl)bis(3,5-dimethylisoxazole)] | Active | – | – | Active | Active
3 | 300 to 3000 | ≤ 300 | Cc1nc2c(-c3cccnc3C)cc(-c3c(C)noc3C)cc2[nH]1 [Example Compound 41, 3,5-dimethyl-4-(2-methyl-4-(2-methylpyridin-3-yl)-1H-benzo[d]imidazol-6-yl)isoxazole] | Active | – | Active | – | –
4 | ≤ 300 | ≤ 300 | Cc1nc2c(-c3c(C)nn(C)c3C)cc(-c3c(C)noc3C)cc2[nH]1 [Example Compound 49, 3,5-dimethyl-4-(2-methyl-4-(1,3,5-trimethyl-1H-pyrazol-4-yl)-1H-benzo[d]imidazol-6-yl)isoxazole] | Active | – | – | – | –
